According to PubChem BioAssay AID330 (DTP/NCI, 2004):
Values joined by “and” are separate entries in the source; they are usually repeats but may differ in a detail not shown here. Equal entries are not always repeated. Inconclusive results and toxic doses are left out. How the source made its calls: active means survival T/C of 150% or more; inactive means T/C below 125% in these data.

Test system: P388 leukemia ip, CD2F1 mice, survival T/C
Experiment: NCI In Vivo Anticancer Drug Screen. Data for tumor model P388 Leukemia (intraperitoneal) in CD2F1 (CDF1) mice
Settings: endpoint: median survival time, higher = longer survival
Method in brief: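 Mice carrying the transplanted tumor received test compound or vehicle. Survival was recorded in each group, and the value is the treated-group measurement divided by that of the vehicle-treated control group.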

[1] = dose: 50.0 mg/kg/injection, schedule: Q01DX009 (ip), vehicle: saline
[2] = dose: 100.0 mg/kg/injection, schedule: Q01DX009 (ip), vehicle: saline
[3] = dose: 200.0 mg/kg/injection, schedule: Q01DX009 (ip), vehicle: saline
[4] = dose: 12.5 mg/kg/injection, schedule: Q01DX009 (ip), vehicle: saline
[5] = dose: 25.0 mg/kg/injection, schedule: Q01DX009 (ip), vehicle: saline with Tween-80
[6] = dose: 25.0 mg/kg/injection, schedule: Q01DX009 (ip), vehicle: saline
[7] = dose: 50.0 mg/kg/injection, schedule: Q01DX009 (ip), vehicle: saline with Tween-80
[8] = dose: 100.0 mg/kg/injection, schedule: Q01DX009 (ip), vehicle: saline with Tween-80
[9] = dose: 50.0 mg/kg/injection, schedule: Q01DX005 (ip), vehicle: saline with Tween-80
[10] = dose: 100.0 mg/kg/injection, schedule: Q01DX005 (ip), vehicle: saline with Tween-80
[11] = dose: 200.0 mg/kg/injection, schedule: Q01DX005 (ip), vehicle: saline with Tween-80
[12] = dose: 50.0 mg/kg/injection, schedule: Q01DX005 (ip), vehicle: Klucel (hydroxypropylcellulose) (HPC)
[13] = dose: 50.0 mg/kg/injection, schedule: Q01DX009 (ip), vehicle: Klucel (hydroxypropylcellulose) (HPC)
[14] = dose: 100.0 mg/kg/injection, schedule: Q01DX009 (ip), vehicle: Klucel (hydroxypropylcellulose) (HPC)
[15] = dose: 200.0 mg/kg/injection, schedule: Q01DX009 (ip), vehicle: Klucel (hydroxypropylcellulose) (HPC)
[16] = dose: 100.0 mg/kg/injection, schedule: Q04DX003 (ip), vehicle: saline
[17] = dose: 200.0 mg/kg/injection, schedule: Q04DX003 (ip), vehicle: saline
[18] = dose: 100.0 mg/kg/injection, schedule: Q04DX002 (ip), vehicle: Klucel (hydroxypropylcellulose) (HPC)
[19] = dose: 200.0 mg/kg/injection, schedule: Q04DX002 (ip), vehicle: Klucel (hydroxypropylcellulose) (HPC)
[20] = dose: 400.0 mg/kg/injection, schedule: Q04DX002 (ip), vehicle: Klucel (hydroxypropylcellulose) (HPC)
[21] = dose: 60.0 mg/kg/injection, schedule: Q01DX005 (ip), vehicle: saline with Tween-80
[22] = dose: 120.0 mg/kg/injection, schedule: Q01DX005 (ip), vehicle: saline with Tween-80
[23] = dose: 240.0 mg/kg/injection, schedule: Q01DX005 (ip), vehicle: saline with Tween-80
[24] = dose: 12.5 mg/kg/injection, schedule: Q01DX009 (ip), vehicle: saline with Tween-80

Measured: T/C

O=C1OC2C3COC(=O)c4cc(O)c(O)c(O)c4-c4c(cc(O)c(O)c4O)C(=O)OC2C(OC(=O)c2cc(O)c(O)c4c2[C@@H]2C1=CC(=O)[C@](O)(O4)C2(O)O)C(OC(=O)c1cc(O)c(O)c(O)c1)O3 (stereo partly specified)
inactive: dose: 6.25 mg/kg/injection, schedule: Q01DX005 (ip), vehicle: DMSO 106 % of control | dose: 12.5 mg/kg/injection, schedule: Q01DX005 (ip), vehicle: DMSO 106 % of control | dose: 25.0 mg/kg/injection, schedule: Q01DX005 (ip), vehicle: DMSO 115 % of control

O=C(O)CSCCCCCCSCC(=O)O
inactive: [1] 103 % of control | [2] 103 % of control | [3] 103 % of control

CC(C)NC(=O)OCc1c(COC(=O)NC(C)C)c(-c2ccc(Cl)c(Cl)c2)n2c1C[C@@H](OC(=O)CCC(=O)O)C2 (tested in a mixture with another compound)
inactive: dose: 12.5 mg/kg/injection, schedule: Q01DX005 (ip), vehicle: water 106 % of control and 107 % of control | dose: 25.0 mg/kg/injection, schedule: Q01DX005 (ip), vehicle: water 107 % of control and 108 % of control | dose: 50.0 mg/kg/injection, schedule: Q01DX005 (ip), vehicle: water 111 % of control and 123 % of control | dose: 50.0 mg/kg/injection, schedule: Q04DX002 (ip), vehicle: water 103 % of control | dose: 100.0 mg/kg/injection, schedule: Q04DX002 (ip), vehicle: water 111 % of control | dose: 200.0 mg/kg/injection, schedule: Q04DX002 (ip), vehicle: water 107 % of control

CCCCCCC1(/C=C/c2ccc(Cl)c(Cl)c2)SCCS1
inactive: dose: 12.0 mg/kg/injection, schedule: Q01DX009 (ip), vehicle: saline with Tween-80 100 % of control | [4] 105 % of control | [5] 107 % of control | [6] 102 % of control | [7] 104 % of control | [8] 100 % of control | [2] 102 % of control and 90 % of control

CNCC(C(=O)c1ccccc1)C(=O)c1ccccc1
inactive: [9] 95 % of control | [10] 101 % of control | [11] 110 % of control

O=C1N=NC2=C1c1c3ccccc3c(O)n1CC2
inactive: dose: 25.0 mg/kg/injection, schedule: Q01DX005 (ip), vehicle: saline with Tween-80 99 % of control | [9] 101 % of control | [10] 95 % of control

COc1ccc2c(ccc3oc([N+](=O)[O-])cc32)c1
inactive: [12] 116 % of control

CN=C(NC)c1ccc(NC(=O)c2cc(C)cc(C(=O)Nc3ccc(C(=NC)NC)cc3)c2)cc1
inactive: dose: 3.12 mg/kg/injection, schedule: Q01DX005 (ip), vehicle: saline with Tween-80 103 % of control | dose: 6.25 mg/kg/injection, schedule: Q01DX005 (ip), vehicle: saline with Tween-80 105 % of control | dose: 12.5 mg/kg/injection, schedule: Q01DX005 (ip), vehicle: saline with Tween-80 107 % of control

O=C(O)c1ccc(C(Cl)(Cl)Cl)cc1
inactive: dose: 100.0 mg/kg/injection, schedule: Q04DX003 (ip), vehicle: saline sonified 113 % of control | dose: 200.0 mg/kg/injection, schedule: Q04DX003 (ip), vehicle: saline sonified 113 % of control | dose: 400.0 mg/kg/injection, schedule: Q04DX003 (ip), vehicle: saline sonified 113 % of control

COc1ccc(NC(=O)c2sc(SC)nc2N)cc1
inactive: [13] 100 % of control | [14] 98 % of control | [15] 97 % of control

Cc1nc2n[nH]c(N)c2nc1C
inactive: [16] 100 % of control | [17] 104 % of control | dose: 400.0 mg/kg/injection, schedule: Q04DX003 (ip), vehicle: saline 95 % of control

CCN(CC)C1=NS(=O)(=O)c2ccccc2C(=O)C1C (stereo unspecified)
inactive: [18] 102 % of control | [19] 100 % of control | [20] 100 % of control

COc1ccccc1N1C(=O)C(=O)C(C(C)=O)C1=O (stereo unspecified)
inactive: [13] 107 % of control | [14] 106 % of control | [15] 108 % of control

CCOP(=O)(CC(=O)O)OCC
inactive: [1] 100 % of control | [2] 102 % of control | [3] 93 % of control

NS(=O)(=O)c1ccc(NC(=O)Nc2cc(C(F)(F)F)ccc2Cl)cc1
inactive: [21] 103 % of control | [22] 96 % of control | [23] 87 % of control

C[N+]1(C)N=C([O-])N(Cc2ccccc2)C1=O
inactive: [16] 118 % of control | [17] 106 % of control

CC(=O)OCc1cnccc1Cl
inactive: dose: 100.0 mg/kg/injection, schedule: Q04DX002 (ip), vehicle: saline with Tween-80 100 % of control | dose: 200.0 mg/kg/injection, schedule: Q04DX002 (ip), vehicle: saline with Tween-80 102 % of control | dose: 400.0 mg/kg/injection, schedule: Q04DX002 (ip), vehicle: saline with Tween-80 94 % of control

CCCOc1cccc2c1C(=O)c1c(O)c3c(c(O)c1C2=O)C[C@@](O)(C(C)=O)C[C@@H]3OC1CC(N)C(O)C(C)O1 (stereo partly specified)
inactive: dose: 3.13 mg/kg/injection, schedule: Q04DX003 (ip), vehicle: water 105 % of control | dose: 6.25 mg/kg/injection, schedule: Q04DX003 (ip), vehicle: water 121 % of control | dose: 12.5 mg/kg/injection, schedule: Q04DX003 (ip), vehicle: water 121 % of control

CCC[As](=O)(O)CCC
inactive: dose: 20.0 mg/kg/injection, schedule: Q01DX009 (ip), vehicle: saline 100 % of control | dose: 25.0 mg/kg/injection, schedule: Q04DX003 (ip), vehicle: saline 86 % of control | dose: 30.0 mg/kg/injection, schedule: Q01DX009 (ip), vehicle: saline 100 % of control | dose: 45.0 mg/kg/injection, schedule: Q01DX009 (ip), vehicle: saline 113 % of control | dose: 50.0 mg/kg/injection, schedule: Q04DX003 (ip), vehicle: saline 109 % of control | [16] 90 % of control

CCOC(=O)CCC1(C(=O)OC)C(=O)CCCCCCCC1C(=O)OC (stereo unspecified)
inactive: [9] 101 % of control | [10] 98 % of control | [11] 94 % of control

Cc1nc(Nc2ccccc2)c2c(C)c(Cc3ccccc3)[nH]c2n1
inactive: [12] 89 % of control | dose: 100.0 mg/kg/injection, schedule: Q01DX005 (ip), vehicle: Klucel (hydroxypropylcellulose) (HPC) 86 % of control | dose: 200.0 mg/kg/injection, schedule: Q01DX005 (ip), vehicle: Klucel (hydroxypropylcellulose) (HPC) 87 % of control

CCCNC(=S)N/N=C(/C)CC/C(C)=N/NC(=S)NCCC
inactive: [4] 98 % of control | [6] 99 % of control | [1] 104 % of control and 86 % of control

CNc1nc(N)nc(N)c1N1CCN(c2ccc(C(=O)O)cc2)CC1
inactive: dose: 60.0 mg/kg/injection, schedule: Q01DX005 (ip), vehicle: Klucel (hydroxypropylcellulose) (HPC) 91 % of control | dose: 120.0 mg/kg/injection, schedule: Q01DX005 (ip), vehicle: Klucel (hydroxypropylcellulose) (HPC) 93 % of control | dose: 240.0 mg/kg/injection, schedule: Q01DX005 (ip), vehicle: Klucel (hydroxypropylcellulose) (HPC) 87 % of control

Nc1ncnc2c1c(-c1ccc(Cl)cc1)cn2-c1ccc(I)cc1
inactive: [21] 100 % of control | [22] 102 % of control | [23] 88 % of control

C=C1CCC2C1C1C(C(C)C)CCC21C (stereo unspecified)
inactive: [24] 92 % of control | [5] 96 % of control | [7] 93 % of control

N#Cc1c(SCc2ccc(Cl)cc2)nsc1Nc1ccc(Cl)cc1
inactive: [24] 96 % of control | [5] 91 % of control | [7] 92 % of control

CCCCCCCc1c(C)[nH]c2cc(OC)ccc2c1=O
inactive: [7] 93 % of control | [8] 95 % of control | dose: 200.0 mg/kg/injection, schedule: Q01DX009 (ip), vehicle: saline with Tween-80 94 % of control

O=C1CC2(CCCC2)CC(=O)N1c1ccc(O)c(CN2CCOCC2)c1
inactive: [18] 97 % of control | [19] 89 % of control | [20] 90 % of control
